# Assay results reported in PubChem BioAssay AID330 (DTP/NCI, 2004).
# “And” between values parts separate entries of the source, which are not always exact repeats. Equal entries are not always repeated. Toxic doses and inconclusive results are not listed.
# Test system: P388 leukemia ip, CD2F1 mice, survival T/C
# Assay: NCI In Vivo Anticancer Drug Screen. Data for tumor model P388 Leukemia (intraperitoneal) in CD2F1 (CDF1) mice
# Settings: endpoint: median survival time, higher = longer survival
# Method in brief: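 Mice carrying the transplanted tumor received test compound or vehicle. Survival was recorded in each group, and the value is the treated-group measurement divided by that of the vehicle-treated control group.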
# [1] = dose: 60.0 mg/kg/injection, schedule: Q01DX005 (ip), vehicle: saline with Tween-80
# [2] = dose: 60.0 mg/kg/injection, schedule: Q01DX005 (ip), vehicle: saline
# [3] = dose: 50.0 mg/kg/injection, schedule: Q01DX009 (ip), vehicle: saline with Tween-80
# [4] = dose: 100.0 mg/kg/injection, schedule: Q01DX009 (ip), vehicle: saline with Tween-80
# [5] = dose: 200.0 mg/kg/injection, schedule: Q01DX009 (ip), vehicle: saline with Tween-80
# [6] = dose: 50.0 mg/kg/injection, schedule: Q01DX005 (ip), vehicle: saline with Tween-80
# [7] = dose: 100.0 mg/kg/injection, schedule: Q01DX005 (ip), vehicle: saline with Tween-80
# [8] = dose: 200.0 mg/kg/injection, schedule: Q01DX005 (ip), vehicle: saline with Tween-80
# [9] = dose: 120.0 mg/kg/injection, schedule: Q01DX005 (ip), vehicle: saline with Tween-80
# [10] = dose: 240.0 mg/kg/injection, schedule: Q01DX005 (ip), vehicle: saline with Tween-80
# [11] = dose: 50.0 mg/kg/injection, schedule: Q01DX005 (ip), vehicle: Klucel (hydroxypropylcellulose) (HPC)
# [12] = dose: 100.0 mg/kg/injection, schedule: Q01DX005 (ip), vehicle: Klucel (hydroxypropylcellulose) (HPC)
smiles,measurement,setting,value
O=C(Cc1ccc(OCc2ccccc2)cc1)NCc1ccc2c(c1)OCO2,T/C,"dose: 15.0 mg/kg/injection, schedule: Q01DX005 (ip), vehicle: saline with Tween-80",96 % of control
same,T/C,"dose: 30.0 mg/kg/injection, schedule: Q01DX005 (ip), vehicle: saline with Tween-80",91 % of control
same,T/C,[1],89 % of control
C[Si](C)(C)CNCc1ccccc1,T/C,"dose: 15.0 mg/kg/injection, schedule: Q01DX005 (ip), vehicle: saline",108 % of control
same,T/C,"dose: 30.0 mg/kg/injection, schedule: Q01DX005 (ip), vehicle: saline",105 % of control
same,T/C,[2],102 % of control and 97 % of control
CCNC(=O)N(CC(=O)NC)c1ncc([N+](=O)[O-])s1,T/C,"dose: 100.0 mg/kg/injection, schedule: Q04DX002 (ip), vehicle: Klucel (hydroxypropylcellulose) (HPC)",103 % of control
same,T/C,"dose: 200.0 mg/kg/injection, schedule: Q04DX002 (ip), vehicle: Klucel (hydroxypropylcellulose) (HPC)",101 % of control
same,T/C,"dose: 400.0 mg/kg/injection, schedule: Q04DX002 (ip), vehicle: Klucel (hydroxypropylcellulose) (HPC)",108 % of control
O=S(=O)(O)O.[NH-]C(c1ccccc1)C([NH-])c1ccccc1.[Pt+2] (centres undefined),T/C,"dose: 1.56 mg/kg/injection, schedule: Q04DX002 (ip), vehicle: saline",110 % of control
same,T/C,"dose: 6.25 mg/kg/injection, schedule: Q04DX002 (ip), vehicle: saline",163 % of control
same,T/C,"dose: 12.5 mg/kg/injection, schedule: Q04DX002 (ip), vehicle: saline",157 % of control and 173 % of control
same,T/C,"dose: 25.0 mg/kg/injection, schedule: Q04DX002 (ip), vehicle: saline",153 % of control and 169 % of control and 185 % of control
O=C1CCCCCCC1C1SCCS1 (centres undefined),T/C,[3],102 % of control
same,T/C,[4],109 % of control
same,T/C,[5],114 % of control
O=S(=O)(O)c1c(O)c2ccccc2c2nc3ccccc3nc12,T/C,"dose: 50.0 mg/kg/injection, schedule: Q01DX007 (ip), vehicle: saline",105 % of control
same,T/C,"dose: 100.0 mg/kg/injection, schedule: Q01DX007 (ip), vehicle: saline",87 % of control
CC1(CCl)Nc2ccccc2C(=O)N1c1ccc(F)cc1 (centres undefined),T/C,[3],103 % of control
same,T/C,[4],95 % of control
same,T/C,[5],95 % of control
C/C(=N/O)C1CCC(C2CCCC(C3CCCCC3)C2)CC1 (centres undefined),T/C,[6],94 % of control
same,T/C,[7],94 % of control
same,T/C,[8],93 % of control
CCCCCCCCCCCCCCCC[N+](C)(C)CCNC(=O)c1ccccc1,T/C,"dose: 3.12 mg/kg/injection, schedule: Q01DX009 (ip), vehicle: water",101 % of control
same,T/C,"dose: 6.25 mg/kg/injection, schedule: Q01DX009 (ip), vehicle: water",106 % of control
same,T/C,"dose: 12.5 mg/kg/injection, schedule: Q01DX009 (ip), vehicle: water",99 % of control and 101 % of control
CCCCN(CCCC)CC(O)c1c(Cl)c2ccccc2c2ccccc12 (centres undefined),T/C,"dose: 25.0 mg/kg/injection, schedule: Q01DX009 (ip), vehicle: saline with Tween-80",100 % of control
same,T/C,[3],93 % of control
same,T/C,[4],100 % of control
O=C(NC(Cc1ccc(O)cc1)C(=O)O)c1ccccc1 (centres undefined),T/C,[6],99 % of control
same,T/C,[7],100 % of control
same,T/C,[8],88 % of control
Cc1oc2ccccc2c(=O)c1Cn1nnc2ccccc21,T/C,[1],103 % of control
same,T/C,[9],103 % of control
same,T/C,[10],94 % of control
CC(=O)c1cc(Cl)ccc1OCC(O)CNc1ccc(Cl)cc1C(=O)c1ccccc1 (centres undefined),T/C,[1],90 % of control
same,T/C,[9],92 % of control
same,T/C,[10],86 % of control
CCOc1nc(N)nc(C)c1N=Nc1ccccc1OC,T/C,"dose: 60.0 mg/kg/injection, schedule: Q01DX005 (ip), vehicle: Klucel (hydroxypropylcellulose) (HPC)",103 % of control
same,T/C,"dose: 120.0 mg/kg/injection, schedule: Q01DX005 (ip), vehicle: Klucel (hydroxypropylcellulose) (HPC)",100 % of control
same,T/C,"dose: 240.0 mg/kg/injection, schedule: Q01DX005 (ip), vehicle: Klucel (hydroxypropylcellulose) (HPC)",100 % of control
CCOC(=O)C(NC(C)=O)(C(=O)OCC)C1CCCCC1=O (centres undefined),T/C,[2],108 % of control
same,T/C,"dose: 120.0 mg/kg/injection, schedule: Q01DX005 (ip), vehicle: saline",96 % of control
same,T/C,"dose: 240.0 mg/kg/injection, schedule: Q01DX005 (ip), vehicle: saline",99 % of control
CC(O)C(C(c1ccccc1)N1CCOCC1)N1CCOCC1 (centres undefined),T/C,[11],99 % of control
same,T/C,[12],90 % of control
same,T/C,"dose: 200.0 mg/kg/injection, schedule: Q01DX005 (ip), vehicle: Klucel (hydroxypropylcellulose) (HPC)",98 % of control
CCOC(=O)Nc1cc2c(c(N)n1)N=C(c1ccc(OC)cc1)CN2,T/C,"dose: 1.5 mg/kg/injection, schedule: Q01DX009 (ip), vehicle: Klucel (hydroxypropylcellulose) (HPC)",105 % of control
same,T/C,"dose: 6.25 mg/kg/injection, schedule: Q01DX001 (ip), vehicle: Klucel (hydroxypropylcellulose) (HPC)",110 % of control
same,T/C,"dose: 6.25 mg/kg/injection, schedule: Q04DX003 (ip), vehicle: Klucel (hydroxypropylcellulose) (HPC)",110 % of control
same,T/C,"dose: 12.5 mg/kg/injection, schedule: Q04DX003 (ip), vehicle: Klucel (hydroxypropylcellulose) (HPC)",158 % of control
same,T/C,"dose: 25.0 mg/kg/injection, schedule: Q01DX001 (ip), vehicle: Klucel (hydroxypropylcellulose) (HPC)",150 % of control
same,T/C,"dose: 25.0 mg/kg/injection, schedule: Q04DX003 (ip), vehicle: Klucel (hydroxypropylcellulose) (HPC)",163 % of control
C=CCn1c(=O)c2[nH]c(Cl)nc2n(CC=C)c1=O,T/C,"dose: 25.0 mg/kg/injection, schedule: Q01DX009 (ip), vehicle: Klucel (hydroxypropylcellulose) (HPC)",105 % of control
same,T/C,"dose: 50.0 mg/kg/injection, schedule: Q01DX009 (ip), vehicle: Klucel (hydroxypropylcellulose) (HPC)",100 % of control
same,T/C,"dose: 100.0 mg/kg/injection, schedule: Q01DX009 (ip), vehicle: Klucel (hydroxypropylcellulose) (HPC)",108 % of control
COc1ccc(CCN2C(=O)CSC2=S)cc1OC,T/C,[4],100 % of control
same,T/C,"dose: 100.0 mg/kg/injection, schedule: Q04DX003 (ip), vehicle: saline with Tween-80",90 % of control
same,T/C,[5],90 % of control
same,T/C,"dose: 200.0 mg/kg/injection, schedule: Q04DX003 (ip), vehicle: saline with Tween-80",90 % of control
same,T/C,"dose: 400.0 mg/kg/injection, schedule: Q04DX003 (ip), vehicle: saline with Tween-80",90 % of control
O=C(NCCN(C(=O)C(F)(F)F)c1ccc(F)cc1)C(F)(F)F,T/C,[3],100 % of control
same,T/C,[4],100 % of control
same,T/C,[5],101 % of control
O=C1c2[nH]cnc2N(Cc2ccc(Cl)cc2)C2=NCCN12,T/C,[11],102 % of control
same,T/C,[12],100 % of control
O=[N+]([O-])CCc1ccc(OC2OC(CO)C(O)C(O)C2O)cc1 (centres undefined),T/C,"dose: 100.0 mg/kg/injection, schedule: Q04DX002 (ip), vehicle: saline",104 % of control
same,T/C,"dose: 200.0 mg/kg/injection, schedule: Q04DX002 (ip), vehicle: saline",102 % of control
same,T/C,"dose: 400.0 mg/kg/injection, schedule: Q04DX002 (ip), vehicle: saline",97 % of control
NNC(=O)C(=O)n1ccnc1,T/C,[6],95 % of control
same,T/C,[7],102 % of control
same,T/C,[8],101 % of control
CC1(C)OC(=O)C=C[C@]2(C)[C@H]3CC[C@]4(C)C(=CCC4c4ccoc4)[C@]3(C)[C@H](O)C[C@@H]12 (some centres undefined),T/C,"dose: 11.25 mg/kg/injection, schedule: Q01DX005 (ip), vehicle: Klucel (hydroxypropylcellulose) (HPC)",101 % of control
same,T/C,"dose: 22.5 mg/kg/injection, schedule: Q01DX005 (ip), vehicle: Klucel (hydroxypropylcellulose) (HPC)",98 % of control
same,T/C,"dose: 45.0 mg/kg/injection, schedule: Q01DX005 (ip), vehicle: Klucel (hydroxypropylcellulose) (HPC)",94 % of control
same,T/C,"dose: 90.0 mg/kg/injection, schedule: Q01DX005 (ip), vehicle: Klucel (hydroxypropylcellulose) (HPC)",98 % of control
same,T/C,"dose: 180.0 mg/kg/injection, schedule: Q01DX005 (ip), vehicle: Klucel (hydroxypropylcellulose) (HPC)",91 % of control
Cc1nc(Nc2c3ccccc3nc3ccccc23)sc1C,T/C,"dose: 12.5 mg/kg/injection, schedule: Q04DX002 (ip), vehicle: distilled water + Tween-80",103 % of control
same,T/C,"dose: 25.0 mg/kg/injection, schedule: Q04DX002 (ip), vehicle: distilled water + Tween-80",100 % of control
same,T/C,"dose: 50.0 mg/kg/injection, schedule: Q04DX002 (ip), vehicle: distilled water + Tween-80",88 % of control
same,T/C,"dose: 100.0 mg/kg/injection, schedule: Q04DX002 (ip), vehicle: distilled water + Tween-80",87 % of control
same,T/C,"dose: 200.0 mg/kg/injection, schedule: Q04DX002 (ip), vehicle: distilled water + Tween-80",90 % of control
same,T/C,"dose: 400.0 mg/kg/injection, schedule: Q04DX002 (ip), vehicle: distilled water + Tween-80",98 % of control
